In assay [1] the target is tumor PGPH activity (A549 tumors) (Homo sapiens, UniProt P28072). The assay is described as follows: Proteasome activity in A549 tumor lysates after in vivo treatment.
Description: To determine proteasome activity in whole cell extracts from cultured cells (5 μg) or tumor and liver tissue extracts (30 μg) from nude mice, the same assay was used except that the buffer was changed to 20 mM HEPES, 0.5 mM EDTA, pH 8.0.
Whole cell extracts were prepared as follows: Cells were harvested, washed with PBS twice, and homogenized in a lysis buffer (50 mM Tris-HCl, pH 8.0, 5 mM EDTA, 150 mM NaCl, 0.5% NP-40) for 30 min at 4° C. Cell extracts from tumors and livers of nude mice were prepared in 50 mM HEPES, 0.5 mM EDTA, pH 8.0. Cell lysates were centrifuged at 12,000 g for 15 min, and the supernatants were collected as whole cell extracts.
Nude mice (Charles River Laboratories, Wilmington, Mass.) were maintained and treated in accordance with the Institutional Animal Care and Use Committee procedures and guidelines. […] Exponentially growing MCF-7 and A549 cells were harvested via trypsinization, pelleted at 300 g for 5 minutes, resuspended in sterile PBS (Invitrogen) at 10^7 cells per 100 μl, and injected into each flank of mice. The tumor xenografts were monitored with an electronic caliper every other day for 16 days. Tumor volume was calculated using the formula V=W^2L, where width is the largest diameter and length is the smallest diameter. When the tumors reached ˜200 mm^3, the animals were randomized and treatment schedules were implemented. […]
For assay [2], the target named is T1, trypsin-like (T-L) activity of purified 20S rabbit proteasome (Oryctolagus cuniculus, UniProt G1SWK8).
T1 construct: purchased Boston Biochem
The assay is described as follows: Proteolytic activity of purified 20S proteasome, fluorogenic substrate Bz-Val-Gly-Arg-AMC. It is filed as biochemical. The conditions noted are these: Table 4: means of 3 experiments ± standard error, read-out: IC50 for T-L activity in vitro. The protocol:
(§1) In the high-throughput screen, the inventors used fluorogenic peptides as substrates to assay 3,229 compounds of the NCI Diversity, Natural Product, Challenge and Mechanistic Sets for inhibitory activity against the proteolytic activities of the purified 20S proteasome, resulting in the identification of PI-083. […] After incubation, production of hydrolyzed 7-amido-4-methyl-coumarin (AMC) groups was measured using a WALLAC Victor^2 1420 Multilabel Counter with an excitation filter of 355 nm and an emission filter of 460 nm (Perkin Elmer Life Sciences, Turku, Finland).

A further assay concerns A549 lung cancer cells. In words: MTT metabolism assay. It is filed as cell-based. The settings on record: Homo sapiens, mean ± SD of 3 to 5 experiments, read-out: IC50 for cell viability measured by MTT assay. The protocol:
(§2) Cells were plated in 96-well plates in 100 μl medium and allowed to attach overnight. […] Media was aspirated after 24 or 72 hours and replaced with 100 μl complete media containing 1 mg/ml MTT and incubated for three hours at 37° C. in 5% CO2 humidified incubator. Media was then aspirated and DMSO was added. Cells were incubated for 10 min at room temperature while shaking, and the absorbance was determined at 540 nm using a μQuant spectrophotometric plate reader (Bio-TEK, Winooski, Vt.).

The subject of assay [3] is MCF-7/MCF-10A, T-80-Hras/T-80, C7-Kras/C7 cells. The assay is described as follows: TUNEL assay, apoptosis in cancer and non-transformed cell pairs. The conditions noted are these: 3 pairs of cell lines, 24 h. The assay is classed as cell-based, human. The method, then: Terminal deoxynucleotidyl transferase-mediated nick-end labeling (TUNEL) was used to determine the extent of DNA strand breaks (Kazi et al., 2004). The assay was performed with the APO-Direct Kit following the manufacturer's instructions. In brief, the harvested cells were fixed in 1% paraformaldehyde for 45 minutes on ice, washed twice with PBS, and then fixed again in 70% ethanol at −20° C. overnight. The cells were then incubated in DNA labeling solution (containing terminal deoxynucleotidyl transferase (TdT) enzyme, fluorescence-conjugated dUTP and reaction buffer) for 60 minutes at 37° C. After rinsing the cells to remove the DNA labeling solution, the cells were incubated with the propidium iodide/RNase A solution, incubated for 30 minutes at room temperature in the dark, and analyzed by flow cytometry within 3 hours of staining.

The test system of assay [4] is MCF-7 breast cancer cells. The assay is described as follows: MTT metabolism assay. The assay is classed as cell-based, human. The conditions noted are these: Homo sapiens. The protocol:
as §2
Cells were plated in 96-well plates in 100 μl medium and allowed to attach overnight. Cells were then incubated for 72 h with varying concentrations of PI-083, YG1-080, YG1-075, HL2-090-2, HL2-090-4, HL2-090-6, and HL2-090-9 or vehicle control (DMSO). Media was aspirated and replaced with 100 μl complete media containing 1 mg/ml MTT and incubated for three hours at 37° C. in 5% CO2 humidified incubator. Media was then aspirated and DMSO was added. Cells were incubated for 10 min at room temperature while shaking, and the absorbance was determined at 540 nm using a μQuant spectrophotometric plate reader (Bio-TEK, Winooski, Vt.).
Background: Tetrazolium assays rely on reduction of a dye to a coloured formazan, in cell work by metabolically active cells.

The subject of assay [5] is MCF-7 breast cancer xenografts. In words: Antitumor study of human tumor xenografts in nude mice (MCF-7). The assay is classed as in vivo. The conditions noted are these: 1 mpk i.p. 2× weekly; for average tumor size of MCF-7 derived xenografts: start at about 200 mm^3. (In general: Xenograft models place foreign cells or tissue in a host animal.)
Description: Nude mice (Charles River Laboratories, Wilmington, Mass.) were maintained and treated in accordance with the Institutional Animal Care and Use Committee procedures and guidelines. Seven days before inoculation with MCF-7 cells, the animals were fully anesthetized for subcutaneous implantation of estradiol pellets (0.25 mg per pellet, 60-day release; Innovative Research of America, Sarasota, Fla.) on the dorsal surface of mice. Exponentially growing MCF-7 and A549 cells were harvested via trypsinization, pelleted at 300 g for 5 minutes, resuspended in sterile PBS (Invitrogen) at 10^7 cells per 100 μl, and injected into each flank of mice. The tumor xenografts were monitored with an electronic caliper every other day for 16 days. Tumor volume was calculated using the formula V=W^2L, where width is the largest diameter and length is the smallest diameter. When the tumors reached ˜200 mm^3, the animals were randomized and treatment schedules were implemented. […] 2 hours after the last injections animals were sacrificed via CO2 inhalation, and then tumors and livers were harvested and snap frozen in liquid N2.
For assay [6], the target named is T2, PGPH activity of purified 20S rabbit proteasome (Oryctolagus cuniculus, UniProt A0A5F9DQW2).
T2 construct: purchased Boston Biochem
In words: Proteolytic activity of purified 20S proteasome, fluorogenic substrate Z-Leu-Leu-Glu-AMC. The assay is classed as biochemical. The conditions noted are these: Table 4: means of 3 experiments ± standard error, read-out: IC50 for PGPH-like activity in vitro. The protocol:
as §1

For assay [7], the system named is primary multiple myeloma cells isolated from patients' bone marrow. The assay is described as follows: Cell death of primary multiple myeloma cells (Trypan blue). The conditions noted are these: read-out: Cell death 24 h (IC50 values); primary MM cells, 24 h treatment; Table 5: one value per patient; mean over patients. It is filed as cell-based, human. The protocol: MM patients' bone marrow samples were collected from Liquid Tissue Bank facility. Freshly isolated bone marrow samples were fractionated by Ficoll-Paque (Pharmacia Biotech, Piscataway, N.J.) sedimentation. The mononuclear cellular layer was then resuspended in RPMI-1640 containing 10% heat-inactivated fetal bovine serum, 10 mM HEPES (pH 7.4), sodium pyruvate, L-glutamine, and 1% penicillin-streptomycin.
Adherent cells were harvested using trypsinization and pooled with suspension cells from media supernatant by pelleting at 300 g for 5 min at 4° C. The cells were then resuspended in an appropriate volume of media by pipetting gently up and down. Two 20 μl aliquots were removed and combined with an equal volume of 0.4% Trypan blue and allowed to mix for 1 minute. A 10 μl volume was loaded onto a hemacytometer and cells were scored as live or dead based on Trypan blue dye exclusion and the percentage of dead cell number to total cell number was calculated. To calculate the percentage of proliferation, the number of live cells in the treated samples was divided by the number of live cells in the untreated vehicle control.

Assay [8] addresses T3, CT-L activity of the proteasome in MCF-7 human breast cancer cells (Homo sapiens, UniProt P20618+P28074).
T3 construct: endogenous in cells; host or cells: MCF-7
In words: Proteolytic activity in cell lysates of treated intact MCF-7 cells. The assay is classed as cell-based. The conditions noted are these: intact cells treated 16 h, CT-L measured in cell lysates; two determinations where two values. The method, then: Human MCF-7 breast cancer cells were cultured in DMEM medium containing 10% fetal calf serum (FCS) and 100 units/ml of penicillin and 100 μg/ml of streptomycin. Cells were maintained at 37° C. in a humidified incubator in an atmosphere of 5% CO2. Cells were treated with different concentrations of PI-083, YG1-080, YG1-075, HL2-090-2, HL2-090-4, HL2-090-6, and HL2-090-9 or vehicle control (DMSO) for 16 h.
Intact cells were treated with compounds and lysates prepared as described above. Cell lysates (5 μg) was incubated with 20 μM Suc-Leu-Leu-Val-Tyr-AMC for the CT-L activity for 1 h at 37° C. in 100 μl of assay buffer (50 mM Tris-HCl, pH 7.6). After incubation, production of hydrolyzed 7-amido-4-methyl-coumarin (AMC) groups was measured using a WALLAC Victor^2 1420 Multilabel Counter with an excitation filter of 355 nm and an emission filter of 460 nm (Perkin Elmer Life Sciences, Turku, Finland).

[9] abbreviates: MCF7, 24 h, MCF-7, 24 h, mean ± SD of 3 to 5 experiments, read-out: IC50 for cell viability measured by MTT assay.
Setting [10] is: MCF7, 72 h, MCF-7, 72 h, mean ± SD of 3 to 5 experiments (Table 3), read-out: IC50 for cell viability measured by MTT assay.

Each structure is given as a SMILES string. Values joined by “and” are separate entries in the source; they are usually repeats but may differ in a detail not shown here. Identical values can stand only once. Like-named read-outs stand apart in the source and are kept apart here.

T1 sequence (G1SWK8 1-271): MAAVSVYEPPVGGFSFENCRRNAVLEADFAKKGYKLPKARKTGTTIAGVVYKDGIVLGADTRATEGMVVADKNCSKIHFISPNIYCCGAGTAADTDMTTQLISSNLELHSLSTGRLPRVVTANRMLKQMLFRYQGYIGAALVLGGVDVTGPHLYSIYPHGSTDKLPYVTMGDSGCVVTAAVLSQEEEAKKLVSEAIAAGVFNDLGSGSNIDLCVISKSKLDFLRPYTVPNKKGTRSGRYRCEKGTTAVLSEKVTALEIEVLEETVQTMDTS
T2 sequence (A0A5F9DQW2 1-212): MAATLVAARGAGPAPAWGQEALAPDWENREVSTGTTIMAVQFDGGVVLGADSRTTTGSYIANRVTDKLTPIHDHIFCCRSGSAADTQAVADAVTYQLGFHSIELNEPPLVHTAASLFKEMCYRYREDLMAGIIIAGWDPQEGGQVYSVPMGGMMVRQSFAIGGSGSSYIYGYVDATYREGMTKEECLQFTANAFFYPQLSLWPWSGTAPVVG

On to `CC(C)C[C@H](NC(=O)[C@H](Cc1ccccc1)NC(=O)c1cnccn1)B(O)O` [Bortezomib, reference compound], for which, in [1] (A549 tumors extracted 2 hours after last i.p. injection (1 mpk), vs DMSO-treated controls), the “inhibition of tumor PGPH activity” value is 68%. Moreover, the half-maximal inhibitory concentration (IC50) in assay [2] was 7.02 µM; in the assay on A549 lung cancer cells (A549, 24 h) it was greater than 30 µM; with A549 lung cancer cells (A549, 72 h) it was 0.41 ± 0.07 µM; in assay [4] (setting [9]), greater than 30 µM; in assay [4] (setting [10]), 8.6 ± 1.41 µM; in assay [6], 0.475 µM. The “apoptosis (TUNEL)” value in [3] is “induced little apoptosis in any of the cell lines”. Further, in [5], the “antitumor effect in MCF-7 xenografts, in words” value is “appeared to be ineffective in the nude mouse model”. Further, the “average tumor size of MCF-7 derived xenografts” value in assay [5] is 1,448±145 mm^3.
As to `O=C1C(Cl)=C(Nc2ccc(S(=O)(=O)Nc3ccccn3)cc2)C(=O)c2ccccc21` [PI-083, 4-(3-chloro-1,4-dioxo-1,4-dihydronaphthalen-2-ylamino)-N-(pyridin-2-yl)benzenesulfonamide], in [1] (A549, mouse, ip, read-out: inhibition of tumor PGPH activity), the inhibition at 1 mg/kg was found to be 34%. Also, the concentration for half-maximal inhibition (IC50) in assay [7] is 6.2 µM and 2.7 µM and 1.1 µM and 2.4 µM and 1.7 µM and 4.1 µM and 9 µM and 7.3 µM and 3.2 µM; with A549 lung cancer cells (A549, 24 h), 41 ± 17 µM; with A549 lung cancer cells (A549, 72 h), 11 ± 6.7 µM; in assay [8], 6.2 µM and 5.6 µM; in assay [4] (setting [9]) it was 4.5 ± 0.82 µM; in assay [4] (MCF7, 72 h, MCF-7, 72 h (Table 6), read-out: IC50 for cell viability measured by MTT assay in MCF-7 human breast cancer cells) it was 2.31 ± 0.1 µM. Moreover, the IC50 in [4] (setting [10]) is 2.2 ± 1.1 µM. Further, the “tumor growth inhibition, MCF-7 xenografts” value in assay [5] came to 84%. In [5], the “average tumor size of MCF-7 derived xenografts” value is listed as “about 396±137 mm^3”.

By IC50 is commonly meant the concentration that gives 50% inhibition. As usually defined, the inhibition is the drop in the measured response relative to a control, in per cent.
